Entries after “also recorded” stand apart in the source; their conditions may differ.
Tests used:
[1] = tested on: tobacco genome in suspension cultures; conditions: relative to untreated material; cited from earlier work
purified TAP-HOG1 [2] = biological target: T1, purified TAP-HOG1 (Arabidopsis thaliana, UniProt O23255); test: biochemical; assay type: binding
T1 construct: Protein A (ProtA part of the TAP tag, TEV site between ProtA and CBP) (N, cleaved yes); made in house; host or cells: transgenic Arabidopsis thaliana harbouring 35S:TAP-HOG1
Procedure: (§1) Cytokinin binding affinity and thermodynamic analysis of the interaction between HOG1 and cytokinins was examined by ITC (MCSITC, Microcal, Northampton, USA). Three naturally occurring cytokinins (zeatin, benzyladenine and isopentenyl adenine) and thidiazuron (an urea-derived synthetic cytokinin) were used. Additionally, adenosine and NAD were used as control molecules to verify the binding specificity of HOG1 to cytokinins. Data were analyzed by MICROCAL ORIGIN version 2.9 using the best-fit, nonlinear least-squares method for one binding site. The binding stoichiometry (n), and association constant (KA) were calculated from the fitted curves. Subsequently, KD was calculated as 1/KA. Raw heat data were corrected to baseline drift obtained from injections of 0.1 μM purified AHP1 into the sample cell containing 2 μM purified TAP-HOG1. Binding isotherms were created by plotting the heat peak areas against the molar ratio of AHP1 added to HOG1.
Cytokinin binding affinity and thermodynamic analysis of the interaction between HOG1 and cytokinins was examined by ITC (MCSITC, Microcal, Northampton, USA). TAP-HOG1 fusion protein was purified using published protocols (Forler et al. supra) from transgenic Arabidopsis plants harboring the 35S:TAP-HOG1 construct. 0.01 μM benzyladenine (a naturally occurring cytokinin) and 0.1 μM of purified TAP-HOG1 protein were used for each ITC assay with 25 injections (each injection of 2 μl at […] intervals at 37° C.). Data were analyzed with MICROCAL ORIGIN version 2.9 using the best-fit, nonlinear least-squares method for one binding site. The binding stoichiometry (n), and association constant (KA) were calculated from the fitted curves. Subsequently, KD was calculated as 1/KA.

[3] = tested on: HOG1 anti-sense suppression (AS) line 12 plants; test: Exogenous cytokinin spray on HOG1 anti-sense suppression line, phenotype; assay type: in vivo, Arabidopsis thaliana; conditions: 0.01 μM spray on alternate days over four weeks
Procedure: Three individual seedlings of OE line 6 and AS line 12 were sprayed on alternate days with zeatin or kinetin (0.01 μM), over a period of four weeks. Two WT plants were similarly treated for comparison. […] E) The control OE lines bolt at 4 leaf stage. B) and D) Three individuals of OE line 6 sprayed with zeatin and kinetin respectively, show bolting only after they have reached the 6-7 leaf stage. […] (Note that panels A, B, E and F are in the main FIG. 2 as panels G, H, I and J, and these are included here for ease of comparison only).

[4] = biological target: T2, recombinant AHP1 with six-His and thioredoxin tags, expressed in E. coli (Arabidopsis thaliana, UniProt Q9ZNV9 1-154); test: ITC; purified AHP1 injected into a cell containing purified TAP-HOG1
T2 construct: This is the form used in ITC; also called purified AHP1; Arabidopsis histidine phosphotransfer protein 1; not shown: thioredoxin tag and six-His tag from the vector PET32EK/LIC (Novagen)
T2 sequence (looked up): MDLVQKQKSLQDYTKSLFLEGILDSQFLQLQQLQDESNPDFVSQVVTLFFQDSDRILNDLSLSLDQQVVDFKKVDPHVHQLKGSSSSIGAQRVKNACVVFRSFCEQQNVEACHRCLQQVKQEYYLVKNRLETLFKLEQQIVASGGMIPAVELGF
Procedure: C) Purification of TAP-HOG1 complex. […] D) SDS-polyacrylamide gel electrophoresis of recombinant AHP1 purification. AHP1 was expressed with six-His and thioredoxin-tags in *E. coli*. Lane 1 has total cell lysate and purified AHP1 with the tags is in lane 2. E) TAP-HOG1 and AHP1 interaction was performed with ITC.
as §1, with “µM” for “μM”

[5] = tested on: S-adenosyl homocysteine hydrolase (SAHH) activity; test: SAHH spectrophotometric assay; assay type: biochemical, Arabidopsis thaliana; conditions: purified protein
purified TAP-HOG1 [6] = biological target: T3, purified TAP-HOG1 (Arabidopsis thaliana, UniProt O23255); test: TAP-HOG1 and AHP1 interaction by ITC; assay type: binding; conditions: recombinant AHP1 injected into purified TAP-HOG1, read-out: KD (dissociation constant)
T3 construct: Protein A (ProtA part of the TAP tag, TEV site between ProtA and CBP) (N, cleaved yes); made in house; host or cells: TAP-HOG1: transgenic Arabidopsis thaliana (35S:TAP-HOG1); AHP1: E. coli BL21 (PET32EK/LIC)
T3 sequence (O23255 whole entry, looked up): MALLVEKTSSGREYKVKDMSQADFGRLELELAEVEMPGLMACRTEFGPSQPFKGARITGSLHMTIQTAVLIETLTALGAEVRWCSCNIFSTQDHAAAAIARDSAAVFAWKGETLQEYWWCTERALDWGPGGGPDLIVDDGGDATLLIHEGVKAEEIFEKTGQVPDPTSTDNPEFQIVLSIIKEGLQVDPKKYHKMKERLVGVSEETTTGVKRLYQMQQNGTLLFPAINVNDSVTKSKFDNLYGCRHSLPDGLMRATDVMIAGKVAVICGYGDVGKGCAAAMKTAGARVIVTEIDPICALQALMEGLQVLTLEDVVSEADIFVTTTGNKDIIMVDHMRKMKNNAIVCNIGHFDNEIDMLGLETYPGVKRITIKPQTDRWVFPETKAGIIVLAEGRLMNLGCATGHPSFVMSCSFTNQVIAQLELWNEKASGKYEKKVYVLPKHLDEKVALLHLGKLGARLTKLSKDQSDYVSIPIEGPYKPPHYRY
Procedure: as §1
TAP-HOG1 protein complex was purified using the ProtA and CBP tags as described before in Forler et al. (supra). For ProtA pulldown, IgG Sepharose beads (Amersham Biosciences #17-0969-01) and for CBP pulldown Calmodulin affinity resin (Stratagene #214303-52) were used. The purified protein was subjected to SDS-PAGE and blotted to PVDF membranes for Western blot analysis using standard protocols. […]

[7] = ITC, control molecules, purified TAP-HOG1, read-out: KD (dissociation constant)

For `Nc1ncnc2c1ncn2C[C@H](O)CO` [(S)-9-(2,3-dihydroxypropyl)adenine], the “decrease of SAM:SAH ratio at which genome hypomethylation occurred” value [1] is listed as 300 folds.

`NC(=O)c1ccc[n+]([C@@H]2O[C@H](COP(=O)([O-])OP(=O)(O)OC[C@H]3O[C@@H](n4cnc5c(N)ncnc54)[C@H](O)[C@@H]3O)[C@@H](O)[C@H]2O)c1` [NAD+] showed a Kd (purified TAP-HOG1 [2]; [7]) of 39500 nM.

Work on `Nc1ncnc2nc[nH]c12` [adenine] yielded a Kd (purified TAP-HOG1 [2]; [7]) of 2100 nM.

For `c1coc(CNc2ncnc3[nH]cnc23)c1` [kinetin], the “phenotype compared with control AS lines” value [3] was “did not show any significant difference in phenotype”.

For `O=C(Nc1ccccc1)Nc1cnns1` [thidiazuron], the “binding to HOG1” value (purified TAP-HOG1 [2]; ITC, performed as with zeatin) was “does not bind”.

In the case of `C/C(=C\CNc1ncnc2[nH]cnc12)CO` [zeatin], the Kd (purified TAP-HOG1 [2]) is reported as 16.9 to 20.6 nM and the “phenotype compared with control AS lines” value [3] is reported as “did not show any significant difference in phenotype”.

B1: purified TAP-HOG1 protein (HOG1 retaining the CBP portion of the TAP tag, 60 kDa) (receptor, not shown: small tags and cut ends)
chain: MALIVEKTSGGREYKVKDMSQADFGRLELELAEVEMPGLMACRTEFGPAQPFKGARITGSLHMTIQTAVLIETLTALGAEVRWCSCNIFSTQDHAAAAIARDSAAVFAWKGETLQEYWWCTERALDWGPGGGPDLIVDDGGDATLLIHEGVKAEEIFEKTGQVPDPTSTDNPEFQIVLSIIKEGLQVDPKKYHKMKGRLVGVSEETTTGVKRLYQMQESGALLFPAINVNDSVTKSKFDNLYGCRHSLPDGLMRATDVMIAGKVAVICGYGDVGKGCAAAMKTAGARVIVTEIDPICALQAMMEGLQVLTLEDVVSEADIFVTTTGNKDIIMVDHMRKMKNNAIVCNIGHFDNEIDMQGLETFPGVKRITIKPQTDRWVFPDTKSGIIVLAEGRLMNLGCATGHPSFVMSCSFTNQVIAQLELWNEKSSGKYEKKVYVLPKHLDEKVAALHLGKLGAKLTKLTKDQSDYVSIPIEGPYKPPHYRY
notes: Purified from transgenic Arabidopsis thaliana carrying 35S:TAP-HOG1, using the Prot A and CBP tags; After purification it keeps only the CBP portion of the tag (60 kDa; HOG1 alone would be 56 kDa); also called Homology-dependent gene silencing 1
With B1 the Kd [4] was 23.8 nM.

B2: TAP-HOG1: TAP-tagged HOG1 polypeptide (SEQ ID NO: 1) purified from transgenic Arabidopsis thaliana (protein, listed as Arabidopsis thaliana)
chain: MALIVEKTSGGREYKVKDMSQADFGRLELELAEVEMPGLMACRTEFGPAQPFKGARITGSLHMTIQTAVLIETLTALGAEVRWCSCNIFSTQDHAAAAIARDSAAVFAWKGETLQEYWWCTERALDWGPGGGPDLIVDDGGDATLLIHEGVKAEEIFEKTGQVPDPTSTDNPEFQIVLSIIKEGLQVDPKKYHKMKGRLVGVSEETTTGVKRLYQMQESGALLFPAINVNDSVTKSKFDNLYGCRHSLPDGLMRATDVMIAGKVAVICGYGDVGKGCAAAMKTAGARVIVTEIDPICALQAMMEGLQVLTLEDVVSEADIFVTTTGNKDIIMVDHMRKMKNNAIVCNIGHFDNEIDMQGLETFPGVKRITIKPQTDRWVFPDTKSGIIVLAEGRLMNLGCATGHPSFVMSCSFTNQVIAQLELWNEKSSGKYEKKVYVLPKHLDEKVAALHLGKLGAKLTKLTKDQSDYVSIPIEGPYKPPHYRY
modifications: TAP tag; HOG1 Arabidopsis thaliana
For B2, the SAHH enzyme activity [5] was “lacks measurable SAHH activity; also recorded: lacks SAHH enzyme activity”.

B3: AHP1: recombinant Arabidopsis histidine phosphotransfer protein 1 with six-HIS and thioredoxin tags, expressed in E. coli (protein)
chain: MDLVQKQKSLQDYTKSLFLEGILDSQFLQLQQLQDESNPDFVSQVVTLFFQDSDRILNDLSLSLDQQVVDFKKVDPHVHQLKGSSSSIGAQRVKNACVVFRSFCEQQNVEACHRCLQQVKQEYYLVKNRLETLFKLEQQIVASGGMIPAVELGF
modifications: left off: large carriers
notes: recombinant Arabidopsis histidine phosphotransfer protein 1 with six-HIS and thioredoxin tags, expressed in E. coli
B3 showed a Kd (purified TAP-HOG1 [6]) of 23.8 nM.

Reference: patent publication US9290777B2, “Putative cytokinin receptor and methods for use thereof” (NATIONAL UNIVERSITY OF SINGAPORE, priority 2007, dated 2016)
